Our source for the Ki values is PMC7601397, “Discovery of Sulforaphane as a Potent BACE1 Inhibitor Based on Kinetics and Computational Studies” (Nutrients, 2020).

In the assay the target is BACE1 (Homo sapiens, UniProt P56817). As to the kind of experiment: FRET enzyme assay (kit); Dixon and Lineweaver-Burk kinetics. Format: biochemical.
Chain of BACE1 (P56817 46-457): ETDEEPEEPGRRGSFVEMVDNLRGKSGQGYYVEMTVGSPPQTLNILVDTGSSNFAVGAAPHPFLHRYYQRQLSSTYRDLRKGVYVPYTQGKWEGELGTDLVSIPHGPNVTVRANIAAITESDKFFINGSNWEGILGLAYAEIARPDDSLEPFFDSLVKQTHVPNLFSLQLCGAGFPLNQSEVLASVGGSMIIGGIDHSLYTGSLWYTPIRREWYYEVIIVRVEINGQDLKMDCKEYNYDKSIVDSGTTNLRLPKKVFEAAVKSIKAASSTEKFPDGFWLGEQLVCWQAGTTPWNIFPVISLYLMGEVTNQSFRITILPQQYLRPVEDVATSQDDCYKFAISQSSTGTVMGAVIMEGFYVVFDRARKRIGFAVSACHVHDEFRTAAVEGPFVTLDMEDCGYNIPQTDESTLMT

For the compound `C[S+]([O-])CCCCN=C=S` (stereo not shown) [Sulforaphane], the Ki (commonly the equilibrium dissociation constant of an inhibitor or competing ligand from its target) is 3.1 µM.
